# Article PMC11640089, “JRM-28, a Novel HDAC2 Inhibitor, Upregulates Plasticity-Associated Proteins in Hippocampal Neurons and Enhances Morphological Plasticity via Activation of CREB: Implications for Alzheimer’s Disease” (Cells, 2024)
# Several values for one entry are separate records, joined by “and”; a condition that tells them apart may be missing. Equal values may be shown once.
# What was measured:
# HDAC2 = HDAC2 (Homo sapiens, UniProt Q92769); assay: Fluorimetric HDAC inhibition assay, HDAC2; format: biochemical; parameters: purchased BPS Bioscience 50034 (HDAC Fluorogenic Assay Kit; enzyme supplied with kit); settings: reduced with DTT
# Sequence of HDAC2 (Q92769 whole entry): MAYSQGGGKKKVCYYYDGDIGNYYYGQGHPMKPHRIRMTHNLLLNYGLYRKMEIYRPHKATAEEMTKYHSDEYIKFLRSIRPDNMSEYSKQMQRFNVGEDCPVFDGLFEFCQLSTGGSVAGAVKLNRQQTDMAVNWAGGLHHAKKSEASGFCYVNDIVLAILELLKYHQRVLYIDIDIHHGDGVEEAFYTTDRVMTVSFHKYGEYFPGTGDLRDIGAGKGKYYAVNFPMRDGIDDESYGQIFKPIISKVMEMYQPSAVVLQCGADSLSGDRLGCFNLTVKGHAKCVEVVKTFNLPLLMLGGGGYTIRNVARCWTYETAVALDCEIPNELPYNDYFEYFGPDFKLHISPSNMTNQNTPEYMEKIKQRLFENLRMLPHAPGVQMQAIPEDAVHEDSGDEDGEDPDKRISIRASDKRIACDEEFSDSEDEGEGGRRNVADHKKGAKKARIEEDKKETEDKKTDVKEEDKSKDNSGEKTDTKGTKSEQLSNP
# Protocol: The inhibition of HDAC1, 2, 3, and 6 by JRM-28 was fluorometrically measured using the HDAC Fluorogenic Assay Kit (Catalog# 50034) by BPS bioscience. Purified recombinant human HDAC1 (Cat# 50051), HDAC3 (Cat# 50003), and HDAC6 (Cat# 50056) were also obtained from BPS Bioscience. The enzyme inhibition assay was performed according to the manufacturer’s protocol. […] Purified recombinant HDAC2 (supplied with the fluorogenic kit) was diluted to 6 ng/µL (5 µL/well with the supplied HDAC assay buffer). HDAC 1, 3, and 6 were also diluted to the optimized concentration (5 µL/well) with the HDAC assay buffer. The activity of JRM-28 was measured along with DTT control and DMSO as blank. After adding 5 µL of the diluted HDAC enzymes in designated wells, the 96-well plate (supplied with the kit) was incubated at 37 °C. Then, the reaction was initiated by adding 5 µL of diluted HDAC substrate to each well, followed by another incubation at 37 °C for 30 min. Next, 50 µL of the developer reagent was added to each well and incubated at room temperature for another 15 min. Finally, fluorescence was measured by a microplate absorbance spectrophotometer (PerkinElmer Enspire 2300 Multilabel Multimode Microplate Reader) with an excitation at λ = 485 nm and detection at λ = 528 nm.
# [1] = system: mouse primary hippocampal neurons; assay: NMDA/AMPA-sensitive calcium influx assay in mouse primary hippocampal neurons; format: cell-based
# Protocol: Mouse primary hippocampal neurons and AD neurons were loaded with Fluo4-fluorescence conjugated calcium dye (Invitrogen Molecular Probes, Cat #F10471) and incubated at 37 °C for 60 min, as described before. Briefly, fluorescence excitation and emission spectra were recorded in a Perkin–Elmer Victor X2 Fluorimetric Spectrometer (Versiti Blood Center, Wauwatosa, WI, USA) in the presence of 50 μM NMDA and AMPA solutions. The recording was performed with 100 repeats at 0.1 ms intervals. The oscillogram was generated with the help of Parkin Elmer 2030 software that was connected to the Victor X2 calcium recorder unit. The real-time calcium noise graph was generated as a kinetic chart plotted on a linear scale.
# SHSY5Y cells = assay: TUNEL assay; format: cell-based, human; settings: 24 h, in the presence of DTT
# Protocol: To assess the effect of JRM-28 on apoptosis in SHS5Y cells, a total of 3 × 10^5 cells suspended in […] of complete neurobasal medium was distributed in each well of a poly-D-lysine-coated eight-well Chamber Slide. After 48 h, cells were treated with 2, 5, 10, 20, 30, and 50 μM of JRM-28 under serum-free conditions and then incubated for an additional 24 h. The TUNEL activity was measured by colorimetric microscopy as directed in the protocol described in DeadEnd™ Colorimetric TUNEL System (Promega, Madison, WI, USA). Hematoxylin staining was adopted to counterstain the slide.
smiles,measurement,setting,value
"CN(C(=O)CC(O)/C=C/CCSS(=O)(=O)CC/C=C/C(O)CC(=O)N(C)c1ccccc1)c1ccccc1 (stereo not drawn) [JRM-28, S-((E)-5-hydroxy-7-(methyl(phenyl)amino)-7-oxohept-3-en-1-yl) (E)-5-hydroxy-7-(methyl(phenyl)amino)-7-oxohept-3-ene-1-sulfonothioate]",IC50,HDAC2,~107 nM and 107 nM
same,Hill slope HDAC2 (fluorimetric),HDAC2; listed as JRM-28 (JRM-28a+28b),−1.580
same,AMPA-sensitive calcium influx,"[1]; 5 µM, 24 h",strongly upregulated
same,NMDA-sensitive calcium influx,"[1]; 5 µM, 24 h",strongly upregulated
same,optimum dose for the calcium influx,"[1]; 2, 5, and 10 µM tested",5 µM
same,NMDA- and AMPA-driven calcium influx after creb siRNA,[1]; creb knocked down by creb siRNA,significantly abrogate
same,TUNEL cytotoxicity,SHSY5Y cells; 20 µM,caused nuclear condensation
same,TUNEL cytotoxicity,SHSY5Y cells; 30 µM,induced significant cell death
same,TUNEL cytotoxicity,SHSY5Y cells; 50 µM,induced significant cell death
same,TUNEL cytotoxicity,SHSY5Y cells; lower doses up to 10 µM,did not induce any cell death
